Values of other authors as cited in patent publication US20040171518A1, “Compounds for protein stabilization and methods for their use” (Medtronic MiniMed, Inc., priority 2003, published 2004).
Read-outs that look alike come from different tables or passages of the source.

O=C(O)CCC(=O)NCCCCC1NC(=O)C(CCCCNC(=O)CCC(=O)O)NC1=O (centres unmarked) [2,5-diketo-3,6-di(4-succinylaminobutyl)piperazine]
solubility (acidic aqueous solutions): quite insoluble | solubility (weakly alkaline aqueous solution): readily soluble
